Experimental findings from US20100261774A1, “Methods for the modulation of Leishmania major infection in mammals” (Children's Hospital Medical Center, priority 2009, published 2010) are described below.

Read-outs that look alike come from different tables or passages of the source.

The mortality is the share of the test organisms that died. Read a high mortality as fewer survivors.

Test [1] relates to Leishmania major clone V1 (MHOM/IL/80/Friedlin).
Experimental: (B) Parasite burden. Quantification of parasite outgrowth from titrations of ear tissue lysates was performed at the indicated times. Values shown are means+SE of 6 mice/group. […] The effect of IDO inhibition during cutaneous leishmaniasis on antigen-specific cytokine production. […] (F) IL-10. Cytokines were quantified by ELISA in the supernatants of soluble L. major antigen-stimulated cells isolated from draining lymph nodes 4 wk after infection. Values shown are means+SE of 6 mice/group. *P<0.05.
Lesion size was quantified with a vernier caliper. Parasite burden was quantified by determining the highest dilution of ear tissue lysates in which promastigote outgrowth could be detected out after 7 days of incubation. […] Cells isolated from lymph nodes draining lesions were incubated with L major promastigote lysates.
Cytokines were quantified by ELISA in culture supernatants harvested 48 h later.
Test [2] relates to visceral leishmaniasis. The experiment in a line: Treatment of visceral leishmaniasis in patients with oral 1-MT. The test is classed as in vivo. The text has this: Patients present with symptoms of fever and organomegaly of long standing that is unresponsive to standard treatment, possibly with attendant anemia and pancytopenia, with a history of travel in an area in which leishmaniasis is known to be endemic. Laboratory tests confirm a diagnosis of visceral […]. […] Patients present with symptoms of fever and organomegaly of long standing that is unresponsive to standard treatment, possibly with attendant anemia and pancytopenia, with a history of travel in an area in which leishmaniasis is known to be endemic. Laboratory tests confirm a diagnosis of visceral leishmaniasis. […] Patients present with symptoms of fever and organomegaly of long standing that is unresponsive to standard treatment, possibly with attendant anemia and pancytopenia, with a history of travel in an area in which leishmaniasis is known to be endemic. Laboratory tests confirm a diagnosis of visceral leishmaniasis.

In test [3] the test system is T. gondii. Particulars: mouse, in vivo.
For test [4], the system named is T. gondii (ME49 strain).
Text: (B) Parasite burden. […] (C) Serum IFN-γ. (D) Serum TNF-α. (E) Serum IL-10. Systemic cytokine production was quantified by the CCA assay 30 d after infection. […] Values shown are means±SE of 8 mice/group. (F) Kinetic analysis of parasite burden in the experiment depicted in FIG. 1A. […] (G) IL-12/23p40 mRNA. (H) IFN-γ mRNA. (I) TNF-α mRNA. (J) IL-10 mRNA. Cytokine mRNA was quantified in brain by qRT-PCR 30 d after infection.
To evaluate parasite load, infected animals were killed and the number of T. gondii cysts present in brain homogenates from these animals were counted.
[5] abbreviates: L. major antigen-stimulated, ELISA, 4 wk after infection, vs untreated.
Where [6] appears, read: early phase of parasite clearance (4 wk after infection), CCA assay.

As to `Cn1cc(C[C@H](N)C(=O)O)c2ccccc21` [1-MT, 1-methyl tryptophan], the “serum levels of IL-4” value in test [1] (1-MT treated vs untreated infected mice, data not shown) is listed as “no differences”. In test [1] (setting [5]), the “IFN-γ protein produced by cells from draining lymph nodes” value is “Relatively more” and the “IL-10 produced by T cells from draining lymph nodes” value is recorded as “relatively less”. Also, in test [1] (setting [6]), the “serum IFN-γ” value is “significantly increased” and the “serum IL-10 concentrations” value is “decreased”. Further, the lesional size result in test [1] (first weeks after infection while lesion size increasing, vs untreated) was “No overt differences”. Also, in test [1] (post apex period, weeks 4-12 post infection, vs untreated), the lesional size entry was “significantly smaller”. Further, the parasite burden result in test [1] (weeks 4 through 12 post infection, vs controls, FIG. 4B) is “significantly lower”. Further, the “amelioration of symptoms of visceral leishmaniasis” value in test [2] (oral 1-MT 12.5-75 mg/kg/day with a drug such as amphotericin at less than usual doses, Example 4) was “equivalent to that achieved with standard drug therapy alone”. The “amelioration of symptoms of visceral leishmaniasis” value in test [2] (oral 1-MT 12.5-75 mg/kg/day with a drug such as amphotericin at normal doses, Example 3) was “more rapid than that observed with standard drug therapy alone”. Moreover, the “symptoms of visceral leishmaniasis” value in test [2] (oral 1-MT approximately 12.5-75 mg/kg/day alone, Example 2) is reported as “Amelioration of symptoms is observed”. Also, in test [3], the “disease course and mortality” value is “reactivation of disease and increased mortality”; the “local and systemic production of inflammatory mediators” value is reported as “relatively little differences”. Further, the “serum levels of IFN-γ, TNF-α and IL-10” value in test [4] (CCA assay, 30 d after infection, vs control) is given as “No significant alteration”. For the same compound, in test [4] (T. gondii-infected mice given 1-MT, FIG. 1A), the mortality was 100%. In addition, the “mRNA expression of IL-12/23p40, IFN-γ, TNF-α and IL-10 in the central nervous system” value in test [4] (qRT-PCR in brain, 30 d after infection, vs control) is “lack of biologically important changes”. For the same compound, the mortality in test [4] (second independent experiment, not pictured, 1-MT vs control) is 100%.
